Measurements taken from patent US7192924B2, “Corticotropin releasing factor 2 receptor agonists” (priority 2002, dated 2007).
pEC50: −log10 of the molar value. Ends that are not written are not given here. Peptide text beside a SMILES is read from it.

Legend:
[1] = target: T1, CRF2R (Homo sapiens, UniProt Q13324); experiment: CRF2R agonist activity (EC50, Emax), called comparative CRF binding; type: cell-based; details: read-out: CRF2R EC50
T1 sequence (Q13324 1-411): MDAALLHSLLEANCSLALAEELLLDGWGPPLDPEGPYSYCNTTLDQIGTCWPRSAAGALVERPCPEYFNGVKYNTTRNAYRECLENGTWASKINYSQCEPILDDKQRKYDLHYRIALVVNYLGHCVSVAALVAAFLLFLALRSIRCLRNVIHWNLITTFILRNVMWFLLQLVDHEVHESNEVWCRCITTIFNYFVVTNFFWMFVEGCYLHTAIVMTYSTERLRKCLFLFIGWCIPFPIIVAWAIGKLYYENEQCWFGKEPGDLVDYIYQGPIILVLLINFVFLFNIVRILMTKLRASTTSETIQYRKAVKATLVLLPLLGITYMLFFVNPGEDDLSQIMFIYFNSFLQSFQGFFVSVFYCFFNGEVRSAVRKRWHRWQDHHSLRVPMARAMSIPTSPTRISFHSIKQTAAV
Outline: (§1)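 Receptor activation was followed through cAMP, measured in lysates or by a CRE-linked reporter, after peptide or vehicle exposure. Cells carried a single CRF receptor subtype, CRF1R or CRF2R; where both were present, background from the non-target receptor was subtracted.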

[2] = target: T2, CRF1R (Homo sapiens, UniProt P34998); experiment: CRF1R agonist activity (EC50, Emax), called comparative CRF binding; type: cell-based; details: read-out: CRF1R EC50
T2 sequence (P34998 24-415): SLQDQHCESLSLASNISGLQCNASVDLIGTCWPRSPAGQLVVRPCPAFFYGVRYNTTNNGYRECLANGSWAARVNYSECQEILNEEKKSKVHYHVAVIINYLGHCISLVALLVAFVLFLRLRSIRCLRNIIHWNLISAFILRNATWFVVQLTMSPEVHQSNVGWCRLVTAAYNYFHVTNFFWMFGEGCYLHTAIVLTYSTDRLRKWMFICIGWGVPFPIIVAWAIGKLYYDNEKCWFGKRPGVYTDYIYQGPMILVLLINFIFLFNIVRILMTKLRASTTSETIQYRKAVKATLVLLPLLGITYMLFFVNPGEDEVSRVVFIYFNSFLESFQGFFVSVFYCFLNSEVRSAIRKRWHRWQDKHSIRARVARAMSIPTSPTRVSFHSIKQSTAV
Outline: as §1

Row | Compound | pEC50 [1] | pEC50 [2]
1 | CC[C@H](C)[C@H](N)C(=O)N[C@H](C(=O)N[C@@H](CC(C)C)C(=O)N[C@@H](CO)C(=O)N[C@@H](CC(C)C)C(=O)N[C@@H](CC(=O)O)C(=O)N[C@H](C(=O)N1CCC[C@H]1C(=O)N[C@H](C(=O)NCC(=O)N[C@@H](CC(C)C)C(=O)N[C@@H](CC(C)C)C(=O)N[C@@H](CCC(N)=O)C(=O)N[C@H](C(=O)N[C@@H](CC(C)C)C(=O)N[C@@H](CC(C)C)C(=O)N[C@@H](CCC(=O)O)C(=O)N[C@@H](CCC(N)=O)C(=O)N[C@@H](C)C(=O)N[C@@H](CCCNC(=N)N)C(=O)N[C@@H](C)C(=O)N[C@@H](CCCNC(=N)N)C(=O)N[C@@H](C)C(=O)N[C@@H](C)C(=O)N[C@@H](CCCNC(=N)N)C(=O)N[C@@H](CCC(=O)O)C(=O)N[C@@H](CCC(N)=O)C(=O)N[C@@H](C)C(=O)N[C@H](C(=O)N[C@H](C(=O)N[C@@H](CC(N)=O)C(=O)N[C@@H](C)C(=O)N[C@@H](CCCNC(=N)N)C(=O)N[C@H](C(=O)N[C@@H](CC(C)C)C(=O)N[C@@H](C)C(=O)N[C@@H](CCCNC(=N)N)C(=O)N[C@H](C(=O)N[C@@H](CCSC)C(N)=O)C(C)C)[C@@H](C)CC)[C@@H](C)O)[C@@H](C)O)[C@@H](C)CC)[C@@H](C)CC)C(C)C)C(C)C [compound 368] (H-IVLSLDVPIGLLQILLEQARARAAREQATTNARILARVM-NH2) | 7.30 | ≤ 6.00
2 | CC[C@H](C)[C@H](N)C(=O)N[C@H](C(=O)N[C@@H](CC(C)C)C(=O)N[C@@H](CO)C(=O)N[C@@H](CC(C)C)C(=O)N[C@@H](CC(=O)O)C(=O)N[C@H](C(=O)N1CCC[C@H]1C(=O)N[C@H](C(=O)N[C@@H](Cc1c[nH]cn1)C(=O)N[C@@H](CC(C)C)C(=O)N[C@@H](CC(C)C)C(=O)N[C@@H](CCC(N)=O)C(=O)N[C@H](C(=O)N[C@@H](CC(C)C)C(=O)N[C@@H](CC(C)C)C(=O)N[C@@H](CCC(=O)O)C(=O)N[C@@H](CCC(N)=O)C(=O)N[C@@H](C)C(=O)N[C@@H](CCCNC(=N)N)C(=O)N[C@@H](C)C(=O)N[C@@H](CCCNC(=N)N)C(=O)N[C@@H](C)C(=O)N[C@@H](C)C(=O)N[C@@H](CCCNC(=N)N)C(=O)N[C@@H](CCC(=O)O)C(=O)N[C@@H](CCC(N)=O)C(=O)N[C@@H](C)C(=O)N[C@H](C(=O)N[C@H](C(=O)N[C@@H](CC(N)=O)C(=O)N[C@@H](C)C(=O)N[C@@H](CCCNC(=N)N)C(=O)N[C@H](C(=O)N[C@@H](CC(C)C)C(=O)N[C@@H](C)C(=O)N[C@@H](CCCNC(=N)N)C(=O)N[C@H](C(N)=O)C(C)C)[C@@H](C)CC)[C@@H](C)O)[C@@H](C)O)[C@@H](C)CC)[C@@H](C)CC)C(C)C)C(C)C [compound 371] (H-IVLSLDVPIHLLQILLEQARARAAREQATTNARILARV-NH2; N-terminus assumed) | 8.18 | ≤ 6.00
3 | CC[C@H](C)[C@H](NC(=O)[C@H](CCCNC(=N)N)NC(=O)[C@H](C)NC(=O)[C@H](CC(N)=O)NC(=O)[C@H](CCC(N)=O)NC(=O)[C@H](CCC(=O)O)NC(=O)[C@H](C)NC(=O)[C@H](CCCNC(=N)N)NC(=O)[C@H](CCC(=O)O)NC(=O)[C@H](CCCNC(=N)N)NC(=O)[C@H](CCC(N)=O)NC(=O)[C@H](CO)NC(=O)[C@H](CCC(N)=O)NC(=O)[C@@H](NC(=O)[C@H](CCCCN)NC(=O)[C@H](CCC(=O)O)NC(=O)[C@H](CC(C)C)NC(=O)[C@H](CCC(=O)O)NC(=O)[C@H](CC(C)C)NC(=O)[C@H](CC(C)C)NC(=O)[C@@H](NC(=O)[C@H](CCCNC(=N)N)NC(=O)[C@H](CC(C)C)NC(=O)[C@H](CC(C)C)NC(=O)[C@H](CC(C)C)NC(=O)[C@H](CC(C)C)NC(=O)[C@@H]1CCCN1C(=O)[C@@H](NC(=O)[C@H](CC(=O)O)NC(=O)[C@@H](NC(=O)[C@H](CO)NC(=O)[C@H](CC(C)C)NC(=O)[C@H](CO)NC(=O)[C@@H]1CCCN1C(=O)[C@H](CC(N)=O)NC(=O)[C@@H](N)CC(=O)O)[C@@H](C)CC)C(C)C)[C@@H](C)O)[C@@H](C)O)C(=O)N[C@@H](Cc1ccccc1)C(=O)N[C@@H](C)C(=O)N[C@@H](CCCNC(=N)N)C(=O)N[C@H](C(N)=O)C(C)C [compound 384] (H-DNPSLSIDVPLLLLRTLLELEKTQSQRERAEQNARIFARV-NH2; N-terminus assumed) | 8.15 | ≤ 6.00
4 | HHHHHHIVLSLDVPIGLLQILLEQARARAAREQATTNARILARN-NH2 [compound 296] | 8.18 | ≤ 7.00
5 | NDDPPISIDLPFFLLRNMIEMARIENEREQAGLNAKYLAEV-NH2 [compound 264] | ≤ 7.00 | 6.15
6 | NDDPPISIDLPFHLLRNMIEMARIENEREQAGLNAKYLAEV-NH2 [compound 262] | ≤ 7.00 | 6.39
7 | NDDPPISIDLPFYLLRNMIEMARIENEREQAGLNAKYLAEV-NH2 [compound 261] | ≤ 7.00 | 6.56
8 | NDDPPISIDLPLFLLRNMIEMARIENEREQAGLNAKYLAEV-NH2 [compound 257] | ≤ 7.00 | 6.13
9 | NDDPPISIDLPLHLLRNMIEMARIENEREQAGLNAKYLAEV-NH2 [compound 259] | ≤ 7.00 | 6.09
10 | SQEPPISLDLTFHLLREVLEQARARAAREQATTNARILARV-NH2 [compound 157] | 7.38 | ≤ 7.00
